Data reported in patent US9434925B2, “Genetically modified mesenchymal stem cell that express an exogenous cytotoxic protein” (APCETH GMBH & CO. KG, priority 2009, dated 2016).

Test system: human MSCs carrying pLenti6 TK RANTES (HSV tk under RANTES promoter)
Assay: Specific cell death of induced genetically modified MSCs after ganciclovir treatment
Format: cell-based
Conditions: 9 days TNFα (10 ng/ml) and IFNγ (10 ng/ml), then 3 days 100 μM ganciclovir
Method: Human MSCs were incubated over night with replication deficient lentiviruses carrying the vector pLenti6 TK RANTES harboring the HSV tk gene under the control of the RANTES promoter and the blasticidin resistance gene under the control of the SV40 promoter (multiplicity of infection (MOI): 10) (see FIG. 8).
After overnight incubation the virus containing media was removed and replaced with fresh media. The next day blasticidin (6 μg/ml) was added to the cells to select for genetically modified MSCs. Culture media, including blasticidin was changed every 3 to 4 days for a minimum of 6 days.
Genetically modified cells (50000 cells in per 6 well) that were generated as described above were treated for 9 days with TNFα (10 ng/ml) and IFNγ (10 ng/ml) with addition of fresh cytokines every 3 days. Subsequently the cells were incubated for 3 days with 100 μM ganciclovir.

## Nc1nc(O)c2ncn(COC(CO)CO)c2n1 [ganciclovir]
  survival of genetically modified MSCs: not surviving
